Experimental data as given in ChEMBL document CHEMBL4316622, “Discovery of novel pyrazole derivatives as potential anticancer agents in MCL” (Bioorg Med Chem Lett, 2019).

How the values were obtained:
Rec1 = experiment: Antiproliferative activity against human Rec1 cells assessed as inhibition of cell proliferation incubated for 72 hrs by Cell-titer-Glo luminescent cell viability assay; type: functional, cell-based; conditions: Rec1, 72 h
JeKo-1 = experiment: Antiproliferative activity against human JeKo1 cells assessed as inhibition of cell proliferation incubated for 72 hrs by Cell-titer-Glo luminescent cell viability assay; type: functional, cell-based; conditions: JeKo-1, 72 h
Maver1 = experiment: Antiproliferative activity against human Maver1 cells assessed as inhibition of cell proliferation incubated for 72 hrs by Cell-titer-Glo luminescent cell viability assay; type: functional, cell-based; conditions: Maver1, 72 h
Z-138 = experiment: Antiproliferative activity against human Z138 cells assessed as inhibition of cell proliferation incubated for 72 hrs by Cell-titer-Glo luminescent cell viability assay; type: functional, cell-based; conditions: Z-138, 72 h
[1] = Antiproliferative activity against human Mino cells assessed as inhibition of cell proliferation incubated for 72 hrs by Cell-titer-Glo luminescent cell viability assay; type: functional, cell-based
[2] = Half life in human liver microsomes further incubated of 5 to 60 mins in presence of NADPH regenerating system by LC/MS analysis
[3] = Stability in human liver microsomes assessed as compound remaining incubated of 60 mins in presence of NADPH regenerating system by LC/MS analysis
in vitro [4] = conditions: human
Description: Intrinsic clearance in human liver microsomes further incubated of 5 to 60 mins in presence of NADPH regenerating system by LC/MS analysis

in vitro [5] = conditions: human; remark: listed apart in the source
Description: Hepatic clearance in human liver microsomes further incubated of 5 to 60 mins in presence of NADPH regenerating system by LC/MS analysis

| SMILES | IC50 (Rec1) | IC50 (JeKo-1) | IC50 (Maver1) | IC50 (Z-138) | IC50 [1] | half-life ([2]; liver microsomes) | remaining at 1 h ([3]; liver microsomes) | microsomal CLint (in vitro [4]; liver microsomes) | CLint scaled (in vitro [5]; liver microsomes) | half-life ([2]; microsomes) | microsomal CLint (in vitro [4]; microsomes) | CLint scaled (in vitro [5]; microsomes) | remaining at 1 h ([3]; microsomes) |
| --- | --- | --- | --- | --- | --- | --- | --- | --- | --- | --- | --- | --- | --- |
| C=CC(=O)Nc1cccc(Cn2nc(-c3ccc(Oc4ccccc4)cc3)cc2C(=O)O)c1 | 33.1 µM | > 60 µM | 37.4 µM | 28.5 µM | 24.3 µM |  |  |  |  |  |  |  |  |
| O=C(CCl)Nc1ccc(Cn2nc(-c3ccc(Oc4ccccc4)cc3)cc2CO)cc1 | 0.4 µM | 0.4 µM | 0.4 µM | 0.4 µM | 0.4 µM |  |  |  |  |  |  |  |  |
| O=C(CCl)Nc1cccc(Cn2nc(-c3ccc(Oc4ccccc4)cc3)cc2CO)c1 | 0.4 µM | 0.4 µM | 0.4 µM | 0.4 µM | 0.4 µM | 10.6 min | 1.5% | 131 µL/min/mg | 118 mL/min/kg |  |  |  |  |
| C=CC(=O)Nc1cccc(Cn2nc(-c3ccc(Oc4ccccc4)cc3)cc2CO)c1 | 1.3 µM | 5.2 µM | 6.7 µM | 6 µM | 3.3 µM |  |  |  |  |  |  |  |  |
| C=CC(=O)Nc1ccc(Cn2nc(-c3ccc(Oc4ccccc4)cc3)cc2C(=O)OCC)cc1 | 2.8 µM | 10.9 µM | 13.3 µM | 12.5 µM | 5.4 µM |  |  |  |  |  |  |  |  |
| C/C=C/C(=O)Nc1cccc(Cn2nc(-c3ccc(Oc4ccccc4)cc3)cc2C(=O)OCC)c1 | 7.8 µM | 16.7 µM | 14.2 µM | 8.9 µM | 16.5 µM |  |  |  |  |  |  |  |  |
| C/C=C/C(=O)Nc1ccc(Cn2nc(-c3ccc(Oc4ccccc4)cc3)cc2C(=O)O)cc1 | 23.6 µM | > 60 µM | > 60 µM | > 60 µM | 23.1 µM |  |  |  |  |  |  |  |  |
| C=CC(=O)Nc1ccc(Cn2nc(-c3ccc(Oc4ccccc4)cc3)cc2C(=O)O)cc1 | > 60 µM | > 60 µM | > 60 µM | > 60 µM | > 60 µM |  |  |  |  |  |  |  |  |
| C/C=C/C(=O)Nc1cccc(Cn2nc(-c3ccc(Oc4ccccc4)cc3)cc2CO)c1 | 3.4 µM | 22.6 µM | 8.1 µM | 5.7 µM | 4.9 µM |  |  |  |  |  |  |  |  |
| C/C=C/C(=O)Nc1cccc(Cn2nc(-c3ccc(Oc4ccccc4)cc3)cc2C(=O)O)c1 | 26 µM | > 60 µM | 31.6 µM | 24.1 µM | 23.3 µM |  |  |  |  |  |  |  |  |
| O=C(CCl)Nc1cccc(Cn2nc(-c3ccc(Oc4ccccc4)cc3)cc2C(=O)O)c1 | 7.1 µM | 6.3 µM | 4.7 µM | 9.1 µM | 11.7 µM |  |  |  |  |  |  |  |  |
| CCOC(=O)c1cc(-c2ccc(Oc3ccccc3)cc2)nn1Cc1ccc(NC(=O)CCl)cc1 | 0.4 µM | 0.4 µM | 0.4 µM | 0.4 µM | 0.6 µM |  |  |  |  |  |  |  |  |
| C/C=C/C(=O)Nc1ccc(Cn2nc(-c3ccc(Oc4ccccc4)cc3)cc2CO)cc1 | 12.2 µM | > 60 µM | 48.4 µM | 54.5 µM | 40.2 µM |  |  |  |  |  |  |  |  |
| C=CC(=O)Nc1cccc(Cn2nc(-c3ccc(Oc4ccccc4)cc3)cc2C(=O)OCC)c1 | 3.3 µM | 7.6 µM | 8.6 µM | 7.8 µM | 5.7 µM |  |  |  |  |  |  |  |  |
| C/C=C/C(=O)Nc1ccc(Cn2nc(-c3ccc(Oc4ccccc4)cc3)cc2C(=O)OCC)cc1 | 13.1 µM | 52.5 µM | > 60 µM | > 60 µM | 33.2 µM |  |  |  |  |  |  |  |  |
| CCOC(=O)c1cc(-c2ccc(Oc3ccccc3)cc2)nn1Cc1cccc(NC(=O)CCl)c1 | 0.4 µM | 0.4 µM | 0.5 µM | 0.4 µM | 1 µM |  |  |  |  |  |  |  |  |
| O=C(CCl)Nc1ccc(Cn2nc(-c3ccc(Oc4ccccc4)cc3)cc2C(=O)O)cc1 | 4 µM | 2.5 µM | 1.2 µM | 1.5 µM | 4.5 µM |  |  |  |  |  |  |  |  |
| C=CC(=O)Nc1ccc(Cn2nc(-c3ccc(Oc4ccccc4)cc3)cc2CO)cc1 | 3.5 µM | 8 µM | 7 µM | 6.8 µM | 5.2 µM |  |  |  |  |  |  |  |  |
| C/C=C/C(=O)N1CCCC(n2nc(-c3ccc(Oc4ccccc4)cc3)cc2C(=O)O)C1 (racemic) | 31 µM | > 60 µM | > 60 µM | > 60 µM | > 60 µM |  |  |  |  |  |  |  |  |
| C/C=C/C(=O)N1CCCC(n2nc(-c3ccc(Oc4ccccc4)cc3)cc2CO)C1 (racemic) | 27.2 µM | > 60 µM | > 60 µM | 51.1 µM | 45 µM |  |  |  |  |  |  |  |  |
| O=C(O)c1cc(-c2ccc(Oc3ccccc3)cc2)nn1C1CCCN(C(=O)CCl)C1 (racemic) | 2.2 µM | 3.6 µM | 0.4 µM | 2.8 µM | 2.5 µM |  |  |  |  |  |  |  |  |
| C=CC(=O)N1CCCC(n2nc(-c3ccc(Oc4ccccc4)cc3)cc2C(=O)O)C1 (racemic) | 50 µM | > 60 µM | > 60 µM | > 60 µM | > 60 µM |  |  |  |  |  |  |  |  |
| C=CC(=O)N1CCCC(n2nc(-c3ccc(Oc4ccccc4)cc3)cc2C(=O)OCC)C1 (racemic) | 13.8 µM | 21.2 µM | > 60 µM | 44 µM | 42.3 µM |  |  |  |  |  |  |  |  |
| C/C=C/C(=O)N1CCCC(n2nc(-c3ccc(Oc4ccccc4)cc3)cc2C(=O)OCC)C1 (racemic) | 5.1 µM | 26.5 µM | 19.6 µM | 19.1 µM | 11.7 µM |  |  |  |  |  |  |  |  |
| C=CC(=O)N1CCCC(n2nc(-c3ccc(Oc4ccccc4)cc3)cc2CO)C1 (racemic) | 5.4 µM | 11.9 µM | 30.5 µM | 14.6 µM | 15.4 µM |  |  |  |  |  |  |  |  |
| O=C(CCl)N1CCCC(n2nc(-c3ccc(Oc4ccccc4)cc3)cc2CO)C1 (racemic) | 0.4 µM | 7.8 µM | 1.1 µM | 0.4 µM | 6 µM |  |  |  |  |  |  |  |  |
| CCOC(=O)c1cc(-c2ccc(Oc3ccccc3)cc2)nn1C1CCCN(C(=O)CCl)C1 (racemic) | 0.4 µM | 0.8 µM | 1.2 µM | 1.3 µM | 1.2 µM |  |  |  |  |  |  |  |  |
| O=C(O)Cc1ccccc1Nc1c(Cl)cccc1Cl [DICLOFENAC] |  |  |  |  |  |  |  |  |  | 11.5 min | 121 µL/min/mg | 109 mL/min/kg |  |
| C=CC(=O)N1CCC[C@@H](n2nc(-c3ccc(Oc4ccccc4)cc3)c3c(N)ncnc32)C1 [IBRUTINIB] | 1.1 µM | 1.5 µM | 10.4 µM | 11.3 µM | 10.1 µM |  |  |  |  |  |  |  |  |
| C[C@]12CC[C@H]3[C@@H](CCC4=CC(=O)CC[C@@]43C)[C@@H]1CC[C@@H]2O [TESTOSTERONE] |  |  |  |  |  |  |  |  |  |  |  |  | 4.2% |
